Results: patent US20120035156A1, “COMBINATION OF GLYT1 COMPOUND WITH ANTIPSYCHOTICS” (priority 2010, published 2012)
Where “and” joins values, the source holds several entries; their conditions need not be identical. Equal values may be shown once. Read-outs that look alike come from different tables or passages of the source.

Key:
schizophrenic patients = conditions: added to conventional therapy; cited from earlier work
[1] = system: L-687,414-induced hyperlocomotion; assay: Reversal of L-687,414-induced hyperlocomotion in mice; format: in vivo; conditions: for ED50: Mus musculus, po, 1 h, read-out: ED50 of compound alone, L-687,414-induced hyperlocomotion; for reversal of hyperlocomotion induced by L-687,414 (in words): single agents, mice, L-687,414 50 mg/kg
Description: RG1678, [4-(3-Fluoro-5-trifluoromethyl-pyridin-2-yl)-piperazin-1-yl]-[5-methanesulfonyl-2-((S)-2,2,2 trifluoro-1-methyl-ethoxy)-phenyl]-methanone (WO05/014563) and L-687,414, ((3R,4R)-3-amino-1-hydroxy-4-methylpyrrolidin-2-one (Tetrahedron Letters, Vol. 49, issue 42, 2008, 6079-6080) and olanzapine were synthesized according to known methods by the Medicinal Chemistry Department of F. Hoffmann-La Roche, and risperidone was purchased from Sigma. All drugs were dissolved in H2O/0.3% Tween 80 and administered orally in a volume of 10 ml/kg body weight.
Male NMRI mice (20-30 g) supplied from Iffa Credo, Lyon, France, were housed in a vivarium at controlled temperature (20-22° C.) and a 12 hr light/dark cycle (lights on 6:00 a.m. Animals were allowed ad libitum access to food and water. The experimental procedures used in the present study received prior approval from the City of Basel Cantonal Animal Protection Committee based on adherence to federal and local regulations. Behavioral experiments were conducted during the hours of 8:00 a.m. and 2:00 p.m.
A computerized Digiscan 16 Animal Activity Monitoring System (Omnitech Electronics, Columbus, Ohio) was used to quantify locomotor activity. Data were obtained simultaneously from eight Digiscan activity chambers placed in a soundproof room with a 12 hr light/dark cycle. Experiments were performed during the light phase between 06:30 a.m. and 5:00 p.m. Each activity monitoring chamber consisted of a Plexiglas box (41×41×28 cm; W×L×H) with sawdust bedding on the floor surrounded by invisible horizontal and vertical infrared sensor beams. The chambers were divided by a Plexiglas cross providing each mouse with 20×20 cm of moving space. Two animals per box were monitored simultaneously. Chambers were connected to a Digiscan Analyzer linked to a computer that constantly collected the beam status information. The activity detector operates by counting the number of times the beams change from uninterrupted to interrupted status or vice-versa. Records of photocell beam interruptions for individual animals were taken every five minutes over the duration of the experimental session. Mice were first treated with RG1678 at different doses or at a fixed low dose administered p.o. and, 30 minutes later, treated with an antipsychotic at different doses or at a fixed low dose administered p.o. Fifteen minutes after the antipsychotic treatment mice received a s.c. injection of 50 mg/kg of L-687,414. Mice were then transferred from their home cages to the recording chambers for a 15-min habituation phase allowing free exploration of the new environment. Horizontal activity was then recorded for a 60-min time period. The horizontal activity value for each group of animals at a given dose of RG1678 alone or in combination with an antipsychotic (y1) was expressed as % of L-687,414-induced hyperlocomotion and calculated according to the equation (((y1−vehicle horizontal activity)/(L-687,414 horizontal activity−vehicle horizontal activity))×100). For dose-response experiments, the horizontal activity value for each group of animal at a given dose of GlyT1 inhibitor or antipsychotics (y1) was expressed as a percent of L-687,414-induced hyperlocomotion and calculated according to the equation (((y1−vehicle horizontal activity)/(L-687,414 horizontal activity−vehicle horizontal activity))×100). ID50 values, defined as doses of each compound producing 50% inhibition of L-687,414-induced hyperlocomotion, were calculated by linear regression analysis of the dose-response data using an Excel-based computer curve-fitting program.

[2] = system: L-687,414-induced hyperlocomotion; conditions: mice; D. Alberati et al 2010; cited from earlier work

In the case of `N[C@H](CO)C(=O)O` [D-serine], the “effect on positive, negative and cognitive symptoms” value (shortened to “effect on positive”) (schizophrenic patients) is given as “improved positive, negative and cognitive symptoms”.
With `C[C@H](Oc1ccc(S(C)(=O)=O)cc1C(=O)N1CCN(c2ncc(C(F)(F)F)cc2F)CC1)C(F)(F)F` [RG1678] the ED50 ([1]; male NMRI mice, p.o., L-687,414 50 mg/kg s.c., horizontal activity recorded 1 hour) was 0.76 mg/kg, the “reversal of hyperlocomotion induced by RG1678 alone” value ([1]; RG1678 0.6 mg/kg p.o., male NMRI mice, L-687,414 50 mg/kg s.c.) was 19% and 21% and the “reversal of hyperlocomotion induced by L-687,414 (in words)” value [1] was “dose-dependently reversed hyperlocomotion”.
For `O=C1CCc2ccc(OCCCCN3CCN(c4cccc(Cl)c4Cl)CC3)cc2N1` [aripiprazole, 7-{4-[4-(2,3-dichlorophenyl)piperazin-1-yl]butoxy}-3,4-dihydroquinolin-2(1H)-one], the “prevention of hyperlocomotion induced by L-687,414 (assay validation)” value (from here on “prevention of hyperlocomotion induced”) [2] is given as “effective in preventing this behavioral effect in a dose-dependant manner”.
For `NCC(=O)O` [glycine], the “effect on positive” value (schizophrenic patients) is listed as “improved positive, negative and cognitive symptoms” and the “prevention of hyperlocomotion induced” value [2] is listed as “dose-dependently blocked hyperlocomotion”.
In the case of `O=C(CCCN1CCC(O)(c2ccc(Cl)cc2)CC1)c1ccc(F)cc1` [haloperidol], the “prevention of hyperlocomotion induced” value [2] is given as “effective in preventing this behavioral effect in a dose-dependant manner”.
In the case of `Cc1cc2c(s1)Nc1ccccc1N=C2N1CCN(C)CC1` [olanzapine, 2-methyl-4-(4-methyl-1-piperazinyl)-10H-thieno[2,3-b][1.5]benzodiazepine], the ED50 [1] was 0.06 mg/kg and the “reversal of hyperlocomotion induced by olanzapine alone” value ([1]; olanzapine 0.05 mg/kg p.o., male NMRI mice, L-687,414 50 mg/kg s.c.) was 34%.
For `Cc1nc2n(c(=O)c1CCN1CCC(c3noc4cc(F)ccc34)CC1)CCCC2` [risperidone, 3-[2-[4-(6-fluoro-1,2-benzisoxazol-3-yl)piperidino]ethyl]-2.methyl-6,7,8,9-tetrahydro-4H-pyrido-[1.2-a]pyrimidin-4-one], the “prevention of hyperlocomotion induced” value [2] is listed as “effective in preventing this behavioral effect in a dose-dependant manner”, the ED50 [1] is listed as 0.023 mg/kg and the “reversal of hyperlocomotion induced by risperidone alone” value ([1]; risperidone 0.005 mg/kg p.o., male NMRI mice, L-687,414 50 mg/kg s.c.) is listed as 15%. The “reversal of hyperlocomotion induced by L-687,414 (in words)” value [1] was “dose-dependently reversed hyperlocomotion”.
For `CNCC(=O)O` [sarcosine], the “effect on positive” value (schizophrenic patients) is listed as “improved positive, negative and cognitive symptoms”.
